Source: ChEMBL document CHEMBL5223093, “Recent advances in the discovery of protein tyrosine phosphatase SHP2 inhibitors” (RSC Med Chem, 2022)

Experiments:
[1] = Downregulation of DUSP6 transcription in human KYSE-520 cells at 30 uM measured after 2 hrs relative to control; type: functional
[2] = target: T1, Tyrosine-protein phosphatase non-receptor type 11 (Homo sapiens, UniProt Q06124); assay: Inhibition of full length SHP2 (unknown origin) using DiFMUP as substrate preincubated for 30 mins followed by substrate addition
T1 sequence (Q06124 whole entry): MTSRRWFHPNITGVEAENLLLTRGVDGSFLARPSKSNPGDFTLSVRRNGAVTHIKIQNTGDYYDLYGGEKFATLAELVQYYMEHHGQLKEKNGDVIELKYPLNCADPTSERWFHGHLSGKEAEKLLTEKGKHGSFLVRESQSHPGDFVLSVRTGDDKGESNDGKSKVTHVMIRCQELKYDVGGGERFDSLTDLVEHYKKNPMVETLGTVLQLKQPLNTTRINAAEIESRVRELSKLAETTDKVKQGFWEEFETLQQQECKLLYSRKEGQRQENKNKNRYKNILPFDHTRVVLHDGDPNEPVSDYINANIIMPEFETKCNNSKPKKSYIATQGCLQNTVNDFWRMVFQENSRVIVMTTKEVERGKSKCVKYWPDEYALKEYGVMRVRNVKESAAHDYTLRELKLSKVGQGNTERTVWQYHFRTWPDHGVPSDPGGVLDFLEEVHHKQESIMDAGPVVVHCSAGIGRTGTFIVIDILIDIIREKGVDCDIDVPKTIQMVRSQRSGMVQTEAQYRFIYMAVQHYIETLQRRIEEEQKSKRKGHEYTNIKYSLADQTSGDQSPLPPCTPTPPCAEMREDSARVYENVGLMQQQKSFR

IC50 [2]	Compound	Activity [1]
	COc1cccc(-c2nnc3n(Cc4ccccc4Cl)c(=O)c4ccccc4n23)c1O	65%
	O=C(O)c1ccc(O)c(-c2nnc3n(Cc4ccccc4Cl)c(=O)c4ccccc4n23)c1	55%
	COc1cccc(-c2nnc3n(Cc4ccc(C(=O)N5CCC[C@H]5C(=O)O)cc4Cl)c(=O)c4ccccc4n23)c1O	43%
583 pM	Cc1nc(N2CCC3(CC2)OC[C@@H](C)[C@H]3N)c(CO)nc1-c1cccc(Cl)c1Cl	
